US9302999B2, “Substituted triazoles as herbicides” (E. I. DU PONT DE NEMOURS AND COMPANY, priority 2012, dated 2016)

What was measured:
Assay type in all cases: in vivo
[1] = system: ryegrass, Italian (Italian ryegrass, Lolium multiflorum); experiment: Test C pre-/postemergence: ryegrass, Italian
Outline: (§1)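 Visual injury scored 0–100 (100 = complete control) against untreated controls after 13–15 greenhouse days. Surfactant-containing solvent formulations applied either to soil after sowing (loam/sand) or over 1- to 4-leaf plants, 2–18 cm tall.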

[2] = system: sedge, umbrella (small-flower umbrella sedge Cyperus difformis); experiment: Test B flooded paddy: sedge, umbrella; conditions: Flood; 250 g ai/ha; applied to paddy water at 2-leaf stage; visually evaluated after 13 to 15 days
Outline: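 Visual ratings (0 = no effect, 100 = complete control) versus untreated controls were taken 13–15 days after treatment of greenhouse plants. Treatment was added to paddy water held at 3 cm depth on 2-leaf-stage seedlings.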

[3] = system: velvetleaf (Abutilon theophrasti); experiment: Test C pre-/postemergence: velvetleaf
Outline: as §1

[4] = system: wheat (Triticum aestivum); experiment: Test A pre-/postemergence: wheat
Outline: (§2)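 Visual 0–100 injury ratings (0 no effect, 100 complete control) taken about ten days after treatment, relative to untreated controls. Preemergence treatment was a directed soil spray; postemergence plants were 2–10 cm tall at one- to two-leaf stage. Soil: loam/sand blend.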

[5] = system: lambsquarters (Chenopodium album); experiment: Test C pre-/postemergence: lambsquarters
Outline: as §1

[6] = system: johnsongrass (Sorghum halepense); experiment: Test C pre-/postemergence: johnsongrass
Outline: as §1

[7] = system: crabgrass, large (large crabgrass, Digitaria sanguinalis); experiment: Test A pre-/postemergence: crabgrass, large
Outline: as §2

corn (Zea mays) = experiment: Test A pre-/postemergence: corn
Outline: as §2

[8] = system: foxtail, giant (giant foxtail, Setaria faberii); experiment: Test A pre-/postemergence: foxtail, giant
Outline: as §2

[9] = Postemergence, 31 g ai/ha, scale 0 to 100 (0 no effect, 100 complete control)
[10] = Postemergence, 62 g ai/ha, scale 0 to 100 (0 no effect, 100 complete control)
[11] = Postemergence, 125 g ai/ha, scale 0 to 100, 0 no effect, 100 complete control
[12] = Postemergence, 250 g ai/ha, scale 0 to 100
[13] = Preemergence, 31 g ai/ha, scale of 0 to 100, 0 is no effect, 100 is complete control
[14] = Preemergence, 62 g ai/ha, scale of 0 to 100, 0 is no effect, 100 is complete control
[15] = Preemergence, 125 g ai/ha, scale 0 to 100, 0 no effect, 100 complete control
[16] = Preemergence, 250 g ai/ha, scale 0 to 100, 0 no effect, 100 complete control
[17] = Postemergence, 125 g ai/ha, 0 to 100 scale, 0 is no effect, 100 is complete control
[18] = Postemergence, 500 g ai/ha, visual rating on 0 to 100 scale (0 no effect, 100 complete control), approximately ten days
[19] = Preemergence, 125 g ai/ha, 0 to 100 scale (0 no effect, 100 complete control)
[20] = Preemergence, 500 g ai/ha, 0 to 100 scale, 0 is no effect, 100 is complete control
[21] = Postemergence, 250 g ai/ha, scale 0 to 100 (0 no effect, 100 complete control)
[22] = Preemergence, 31 g ai/ha, scale 0 (no effect) to 100 (complete control)
[23] = Postemergence, 500 g ai/ha, 0 to 100 scale, 0 is no effect, 100 is complete control
[24] = Preemergence, 125 g ai/ha, 0 to 100 scale where 0 is no effect and 100 is complete control
[25] = Preemergence, 500 g ai/ha, 0 to 100 scale (0 no effect, 100 complete control)

## FC(F)Oc1nn(-c2ccc(C(F)(F)F)cc2)nc1Cc1ccnc(C(F)(F)F)c1 [Compound 26]
[1]; [9]
  Plant response rating, Ryegrass, Italian: 10
[1]; [10]
  Plant response rating, Ryegrass, Italian: 20
[1]; [11]
  Plant response rating, Ryegrass, Italian: 30
[1]; [12]
  Plant response rating, Ryegrass, Italian: 35
[1]; [13]
  Plant response rating, Ryegrass, Italian: 10
[1]; [14]
  Plant response rating, Ryegrass, Italian: 60
[1]; [15]
  Plant response rating, Ryegrass, Italian: 60
[1]; [16]
  Plant response rating, Ryegrass, Italian: 80
[2]
  Plant response rating, Sedge, Umbrella (0 to 100 scale, 0 is no effect, 100 is complete control): 90
[3]; [9]
  Plant response rating, Velvetleaf: 25
[3]; [10]
  Plant response rating, Velvetleaf: 50
[3]; [11]
  Plant response rating, Velvetleaf: 55
[3]; [12]
  Plant response rating, Velvetleaf: 85
[3]; [13]
  Plant response rating, Velvetleaf: 25
[3]; [14]
  Plant response rating, Velvetleaf: 35
[3]; [15]
  Plant response rating, Velvetleaf: 75
[3]; [16]
  Plant response rating, Velvetleaf: 100
[4]; [17]
  Wheat plant response rating: 60
[4]; [18]
  Wheat plant response rating: 80
[4]; [19]
  Plant response rating, Wheat: 50
[4]; [20]
  Plant response rating, Wheat: 80
[5]; [9]
  Plant response rating, Lambsquarters: 80
[5]; [10]
  Plant response rating, Lambsquarters: 95
[5]; [11]
  Plant response rating, Lambsquarters: 98
[5]; [12]
  Plant response rating, Lambsquarters: 98
[5]; [13]
  Plant response rating, Lambsquarters: 70
[5]; [14]
  Plant response rating, Lambsquarters: 98
[5]; [15]
  Plant response rating, Lambsquarters: 98
[5]; [16]
  Plant response rating, Lambsquarters: 100
[6]; [9]
  Plant response rating, Johnsongrass: 15
[6]; [10]
  Plant response rating, Johnsongrass: 15
[6]; [11]
  Plant response rating, Johnsongrass: 25
[6]; [12]
  Plant response rating, Johnsongrass: 40
[6]; [13]
  Plant response rating, Johnsongrass: 15
[6]; [14]
  Plant response rating, Johnsongrass: 55
[6]; [15]
  Plant response rating, Johnsongrass: 95
[6]; [16]
  Plant response rating, Johnsongrass: 98
[7]; [17]
  Crabgrass, Large plant response rating: 90
[7]; [18]
  Crabgrass, Large plant response rating: 90
[7]; [19]
  Plant response rating, Crabgrass, Large: 100
[7]; [20]
  Plant response rating, Crabgrass, Large: 100
Corn (Zea mays); [17]
  Corn plant response rating: 30
Corn (Zea mays); [18]
  Corn plant response rating: 40
Corn (Zea mays); [19]
  Plant response rating, Corn: 30
Corn (Zea mays); [20]
  Plant response rating, Corn: 50
[8]; [17]
  Foxtail, Giant plant response rating: 90
[8]; [18]
  Foxtail, Giant plant response rating: 90
[8]; [19]
  Plant response rating, Foxtail, Giant: 100
[8]; [20]
  Plant response rating, Foxtail, Giant: 100

## CCc1nn(-c2ccc(F)c(F)c2)nc1Oc1ccnc(C(F)(F)F)c1 [Compound 171]
[1]; [9]
  Plant response rating, Ryegrass, Italian: 5
[1]; [10]
  Plant response rating, Ryegrass, Italian: 5
[1]; [11]
  Plant response rating, Ryegrass, Italian: 10
[1]; [21]
  Plant response rating, Ryegrass, Italian: 10
[1]; [22]
  Plant response rating, Ryegrass, Italian: 10
[1]; [14]
  Plant response rating, Ryegrass, Italian: 50
[1]; [15]
  Plant response rating, Ryegrass, Italian: 60
[1]; [16]
  Plant response rating, Ryegrass, Italian: 100
[2]
  Plant response rating, Sedge, Umbrella (0 to 100 scale, 0 is no effect, 100 is complete control): 85
[3]; [9]
  Plant response rating, Velvetleaf: 25
[3]; [10]
  Plant response rating, Velvetleaf: 25
[3]; [11]
  Plant response rating, Velvetleaf: 45
[3]; [21]
  Plant response rating, Velvetleaf: 75
[3]; [22]
  Plant response rating, Velvetleaf: 5
[3]; [14]
  Plant response rating, Velvetleaf: 25
[3]; [15]
  Plant response rating, Velvetleaf: 55
[3]; [16]
  Plant response rating, Velvetleaf: 65
[4]; [17]
  Plant response rating, Wheat: 30
[4]; [23]
  Wheat plant response rating: 40
[4]; [24]
  Plant response rating, Wheat: 10
[4]; [25]
  Plant response rating, Wheat: 60
[5]; [9]
  Plant response rating, Lambsquarters: 75
[5]; [10]
  Plant response rating, Lambsquarters: 75
[5]; [11]
  Plant response rating, Lambsquarters: 95
[5]; [21]
  Plant response rating, Lambsquarters: 95
[5]; [22]
  Plant response rating, Lambsquarters: 100
[5]; [14]
  Plant response rating, Lambsquarters: 100
[5]; [16]
  Plant response rating, Lambsquarters: 100
[6]; [9]
  Plant response rating, Johnsongrass: 15
[6]; [10]
  Plant response rating, Johnsongrass: 15
[6]; [11]
  Plant response rating, Johnsongrass: 25
[6]; [21]
  Plant response rating, Johnsongrass: 25
[6]; [22]
  Plant response rating, Johnsongrass: 0
[6]; [14]
  Plant response rating, Johnsongrass: 25
[6]; [15]
  Plant response rating, Johnsongrass: 75
[6]; [16]
  Plant response rating, Johnsongrass: 95
[7]; [17]
  Plant response rating, Crabgrass, Large: 90
[7]; [23]
  Crabgrass, Large plant response rating: 100
[7]; [24]
  Plant response rating, Crabgrass, Large: 100
[7]; [25]
  Plant response rating, Crabgrass, Large: 100
Corn (Zea mays); [17]
  Plant response rating, Corn: 20
Corn (Zea mays); [23]
  Corn plant response rating: 30
Corn (Zea mays); [24]
  Plant response rating, Corn: 10
Corn (Zea mays); [25]
  Plant response rating, Corn: 30
[8]; [17]
  Plant response rating, Foxtail, Giant: 80
[8]; [23]
  Foxtail, Giant plant response rating: 90
[8]; [24]
  Plant response rating, Foxtail, Giant: 100
[8]; [25]
  Plant response rating, Foxtail, Giant: 100
